Data on four compounds can be found in patent EP1655289A1, “Quinazoline derivatives, process for their preparation, their use as antimitotics and pharmaceutical compositions comprising said derivatives” (EMBL, priority 2004, dated 2006).

Where two headings read alike, the source gives them in different places.

For data set [1], the system named is HeLa cells. Briefly: Wash-out experiment in HeLa cells (18 h treatment, 24 h fresh medium). The class given is cell-based, human. Conditions: 24 h in fresh medium. As for the experimental part: (§1) Hela cells were cultured in DMEM medium supplemented with 10 % (v/v) FCS to 60 % confluency. The culture medium was then exchanged by fresh medium containing different inhibitor or DMSO and the cells placed at 37 °C in 5 % CO2 for 18 h. The final volume of inhibitor dissolved in DMSO in the medium was always equal to or less than 0.1 % (v/v)For wash out experiments, cells were treated as described above. After 18 h cells were washed with phosphate buffered saline (PBS), covered with fresh medium and cultured for another 24 h at 37 °C in 5 % CO2.
(§2) For FACS analysis, cells were scraped off the culture plate after inhibitor treatment or after wash-out and collected by centrifugation in a Heraeus Megafuge 1.0R at 1200 rpm for 5 min. The cell pellet was washed once with 5 ml PBS and then resuspended in 0.5 ml PBS. The cells were fixed by addition of 4 ml 70 % (v/v) ethanol and incubation overnight at -20 °C. Fixed cells were centrifuges at 1200 rpm for 5 min, washed with 5 ml PBS, and resuspended in 1ml PI solution (10 µg/ml propidium iodide, 100 µg/ml RNAse A, 0.05 % Triton X100 in PBS). After 30 min at 37 °C in the dark, cells were analyzed by fluorescence-activated cell sorting (FACS).
One useful characteristic of monastrol is that is non-toxic for the cells when applied transiently; once washed out cells resume mitosis. […]

In the next data set the target is T1, Eg5 (Xenopus laevis, UniProt P28025).
T1 construct: Xenopus laevis Eg5 corresponding to amino acids 1 to 487; made in house; host or cells: E. coli M15(pREP4)
T1 sequence (P28025 1-487): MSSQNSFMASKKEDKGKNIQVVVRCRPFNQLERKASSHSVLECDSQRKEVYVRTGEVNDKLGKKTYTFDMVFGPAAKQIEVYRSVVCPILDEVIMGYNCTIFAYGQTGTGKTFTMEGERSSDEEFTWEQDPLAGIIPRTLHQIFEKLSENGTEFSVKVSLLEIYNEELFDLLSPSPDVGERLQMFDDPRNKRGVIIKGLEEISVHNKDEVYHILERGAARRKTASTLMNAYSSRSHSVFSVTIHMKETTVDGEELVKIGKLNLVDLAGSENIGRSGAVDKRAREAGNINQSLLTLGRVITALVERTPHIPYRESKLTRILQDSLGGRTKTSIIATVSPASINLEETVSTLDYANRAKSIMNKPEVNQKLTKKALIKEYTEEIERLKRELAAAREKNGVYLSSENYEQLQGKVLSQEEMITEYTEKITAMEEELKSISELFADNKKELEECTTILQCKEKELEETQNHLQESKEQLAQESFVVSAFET
In words: Microtubule-stimulated ATPase activity of Eg5 (EnzChek Phosphate Assay), IC50 determination. The data set is classed as biochemical. Conditions: for potency as inhibitor of Eg5 compared to monastrol: ratio of IC50 values versus monastrol. As to the method:
The protein was expressed in E. coli M15(pREP4) for 5 h at 18 °C in LB containing 1 mM isopropylthio-β-D-galactopyranoside (IPTG), 100 µg/ml ampicillin, 25 µg/ml kanamycin, and 2% (v/v) ethanol. The harvested cells were lysed in buffer A (50 mM KPi, 100 mM NaCl, 0.1 mM MgATP protease inhibitors (Roche), pH 7.0) with 5 mM mercaptoethanol (ME). The clarified lysate was loaded onto a HIS-Select Cobalt Affi Gel column (Sigma), washed with buffer A supplemented with 10 mM imidazole, 2 mM ME, 10 % (w/v) glycerol, and eluted with 150 mM imidazole, 50 mM KCI, 10 % (w/v) glycerol, 10 mM ME, pH 7.3. The buffer was exchanged to 50 mM 3-(N-morpholino)propanesulfonic acid/KOH, 50 mM KCI, 1 mM MgCl2, 1 mM EGTA, 10 mM ME, 20 % (w/v) glycerol, pH 7.0 by dialysis. The protein concentration was adjusted to 2 mg/ml (measured by a Bradford assay using bovine serum albumin (BSA) as standard). Eg5487H was frozen in liquid ethane and stored in liquid nitrogen.
Polymerized microtubules were then stabilized by addition of 1 µl 10 mM paclitaxel (Sigma) in DMSO and incubated at 37 °C for another 20 minutes. The suspension was centrifuged at 70000 rpm at 30 °C for 30 minutes in a TLA100 rotor (Beckman). The resulting microtubule pellet was resuspended in 60 µl assay buffer (10 mM imidazole/acetate, 5 mM K-acetate, 2 mM EGTA and 4 mM Mg-acetate, pH 6.8.) supplemented with 20 µM paclitaxel at 37 °C. This microtubule suspension was stored at room temperature. The final concentration was 80 µM polymerized tubulin as determined by Bradford using BSA as a standard.
Final concentrations were 40 nM Eg5487H, 4 µM microtubules (tubulin dimer concentration as determined by Bradford using BSA as standard), and 1 mM MgATP. The ATPase activity was measured as an increase of absorbance at 365 nm within 2 h at room temperature. 1 % (v/v) inhibitor in DMSO at different concentrations (or 1 % (v/v) DMSO as a control) was added at the start of the experiment. At least 4 measurements were performed per condition and the results were then averaged. The microtubule-stimulated activity of Eg5487H was obtained by subtracting background activity (measured with microtubules only in the absence of Eg5487H) from measurements containing Eg5487H and microtubules. The IC50 was determined by assuming non-competitive enzyme inhibition and fitting the theoretically expected dependence of the enzym activity on the inhibitor concentration to the experimental microtubule-stimulated ATPase activities. The equation used for the fit was v = vmax * IC50 / ([inhibitor] + IC50) + vres with v being the measured relative ATPase rate, vmax being the maximum ATPase rate and vres being a residual activity at high inhibitor concentration.

The test system of data set [2] is HeLa cells. Briefly: FACS cell cycle analysis of HeLa cells after 18 h inhibitor treatment. The data set is classed as cell-based, human. Conditions: for cells in G2/M: FACS (control 23%). As to the method: as §1
HeLa cells were incubated for 18 hours in medium supplemented with various concentrations of either of the three compounds, monastrol or DMSO. Cells were then fixed and analyzed by FACS and immunofluorescence.
as §2

For a further data set, the system named is Xenopus egg extract. Briefly: Spindle assembly in Xenopus egg extracts. On the set-up: species or system Xenopus laevis. As to the method: Cytostatic factor (CSF)-arrested Xenopus laevis egg extracts were prepared as described previously. Spindle assembly experiments were performed in cycled extracts with sperm nuclei and tetramethylrhodamine labelled tubulin as described. 1 % (v/v) (or less) inhibitor dissolved in DMSO was added to the extract prior to spindle assembly. As control 1% DMSO was added to the extract. Spindles were fixed and centrifuged onto coverslips. The DNA was stained with DAPI. Structures were then visualized by epi-fluorescence microscopy (Zeiss Axiovert 135 equipped with a Roper CoolSnap HQ camera). Spindles and aberrant microtubule structures were then counted.

Where [3] appears, read: microtubule-stimulated ATPase activity, 40 nM Eg5487H, 4 µM microtubules, 1 mM MgATP, read-out: IC50.
Setting [4] is: 10 µM added to Xenopus egg extract.

What is called IC50 is the concentration at which inhibition is half-maximal. Regarding `CCOC(=O)C1=C(C)NC(=S)NC1c1cccc(O)c1` (stereo not drawn) [monastrol, 4-(3-hydroxyphenyl)-5-ethoxycarbonyl-6-methyl-3,4-dihydropyrimidin-2(1H), reference compound], the “toxicity for the cells when applied transiently” value in the data set with HeLa cells [1] was “non-toxic”. This compound yielded an IC50 at Eg5 of 30000 nM. The “cells in G2/M” value in the data set with HeLa cells [2] (10 µM) worked out at 31%; in the data set with HeLa cells [2] (100 µM) it was 74%.

Consider `Oc1cccc(C2NC(=S)NC3=C2C(O)CCC3)c1` (stereo not drawn) [Example 3, 4-(3-Hydroxyphenyl)-5-hydroxy-3,4,5,6,7,8-hexahydroquinazoline-2(1H)-thione], for which the half-inhibitory concentration (IC50) on Eg5 (setting [3]) was 2000 nM. In addition, on Eg5, the “potency as inhibitor of Eg5 compared to monastrol” value is “more than ten times more potent”. For the same compound, the “cells in G2/M” value in the data set with HeLa cells [2] (10 µM) is 77%. Further, the bipolar spindle formation entry with Xenopus egg extract (setting [4]) was “inhibited bipolar spindle formation”.

`O=C1CCCC2=C1C(c1cccc(O)c1)NC(=S)N2` (stereo not drawn) [Example 1, 4-(3-Hydroxyphenyl)-5-oxo-3,4,5,6,7,8-hexahydroquinazoline-2(1H)-thione]: at Eg5 (setting [3]), the 50% inhibitory concentration (IC50) amounted to 2000 nM. For the same compound, the “potency as inhibitor of Eg5 compared to monastrol” value on Eg5 was “more than ten times more potent”. The “cells in G2/M” value with HeLa cells [2] (10 µM) turned out to be 77%. Besides, the bipolar spindle formation entry in the data set with Xenopus egg extract (setting [4]) is reported as “inhibited bipolar spindle formation”.

On to `CC1(C)CC(=O)C2=C(C1)NC(=S)NC2c1cccc(O)c1` (stereo not drawn) [Example 2, 7,7-Dimethyl-4-(3-hydroxyphenyl)-5-oxo-3,4,5,6,7,8-hexahydroquinazoline-2(1H)-thione], for which, on Eg5, the half-maximal inhibitory concentration (IC50) was determined as 200 nM and the “potency as inhibitor of Eg5 compared to monastrol” value is on record as “more than 100 times”. In addition, in the data set with HeLa cells [2] (0.1 µM, FACS), the cell cycle distribution entry is “No cell cycle distribution abnormalities”. For the same compound, in the data set with HeLa cells [2] (0.5 µM), the “cells in G2/M” value was 47%. Besides, the “cells in G2/M” value in the data set with HeLa cells [2] (1 µM) was determined as 75%. Further, the bipolar spindle formation entry in the data set with Xenopus egg extract (1 µM added to Xenopus egg extract) was “inhibited bipolar spindle formation”.
